Several values for one entry are separate records, joined by “and”; a condition that tells them apart may be missing. Identical values can stand only once. Like-named read-outs stand apart in the source and are kept apart here.
How the values were obtained:
[1] = test system: KAP organoids; assay: cell viability in KAP organoids (CellTiter-Glo); type: cell-based, mouse; conditions: for viability at 1 µM: Mus musculus
Procedure: (§1) For in vitro treatment studies, organoids were mechanically dissociated and digested using TrypLE supplemented with 100 µg ml^−1 DNaseI and 10.5 µM Y-27632 dihydrochloride (Invitrogen) at 37 °C. A total of 1,000–2,000 single cells were plated per well in white 96-well plates (Greiner) in culture medium containing 10% GFR Matrigel or Cultrex BME. The treatment with doxycycline (5 µg ml^−1), pharmacological inhibitors or corresponding volumes of DMSO was started 24 h after plating. Doxycycline was obtained from Sigma-Aldrich. […] Cell viability was measured by means of CellTiter-Glo 3D or CellTiter-Glo 2.0 reagent (Promega) according to the manufacturers’ instructions and the Infinite M Plex reader (Tecan, i-control version 3.9.1 software). Results were normalized to vehicle (DMSO) or to shNC. For cell-doubling assays, the cell number was quantified at the corresponding time points using Guava EasyCyte flow cytometer (Luminex, CytoSoft v5.2 software).

[2] = test system: PDO8; assay: cell viability in patient-derived CRC organoids PDO8; type: cell-based, human
Procedure: as §1

[3] = test system: PDO9; assay: cell viability in patient-derived CRC organoids PDO9; type: cell-based, human
Procedure: as §1

[4] = test system: PDO10; assay: cell viability in patient-derived CRC organoids PDO10; type: cell-based, human
Procedure: as §1

[5] = test system: PDO12; assay: cell viability in patient-derived CRC organoids PDO12; type: cell-based, human
Procedure: as §1

[6] = test system: PDO13; assay: cell viability in patient-derived CRC organoids PDO13; type: cell-based, human
Procedure: as §1

[7] = test system: PDO14; assay: cell viability in patient-derived CRC organoids PDO14; type: cell-based, human
Procedure: as §1

[8] = test system: HCT 116; assay: cell viability in human CRC cell line HCT 116; type: cell-based; conditions: 4 d
Procedure: (§2) To generate KAP^2D cells, KAP organoids were isolated from Matrigel, fragmented by mechanical dissociation and plated without any extracellular matrix on common cell culture dishes. Phoenix-Eco packaging cells (CRL-3214), HCT-15 (CCL-225), HCT 116 (CCL-247), COLO 205 (CCL-222), LS 174T (CL-188), RKO (CRL-2577) and HT-29 (HTB-38) were obtained from the American Type Culture Collection. The cells were cultured at 37 °C and 7% CO2 with RPMI (KAP^2D cells) or DMEM (other cell lines), supplemented with 10% FBS and penicillin–streptomycin. KAP^2D cells were authenticated using PCR (Kras locus and Trp53 locus). Phoenix-Eco packaging cells and HCT-15, HCT 116, COLO 205, LS 174T, RKO and HT-29 cells were authenticated by the provider using short tandem repeat profiling. No commonly misidentified cell lines were used. Mycoplasma contamination was excluded by a PCR-based analysis.
as §1

[9] = test system: COLO 205; assay: cell viability in human CRC cell line COLO 205; type: cell-based; conditions: 4 d
Procedure: as §2, §1

Compound: O=C(NCCN1CCOCC1)c1ccc2c(c1)C(=O)c1ccc(Nc3ccc(F)c(NC(=O)c4ccccc4)c3)cc1CC2 [Compound 1639]
- Cell viability (%) ([1]; Fig. 1g, 0.5 µM, replicates): 93.61% and 119.78% and 82.99%
- Cell viability (%) ([1]; Fig. 1g, 1 µM, replicates): 54.56% and 39.62%
- Cell viability (%) ([1]; Fig. 2b, compound screen, replicates): 45.26% and 35.57% and 35.59%
- Cell viability (%) ([1]; Fig. 2f, 0,5 µM, replicates, 5 µM): 109.96% and 85.33% and 68.50%
- Cell viability (%) ([1]; Fig. 2f, 0,25 µM, replicates, 25 µM): 115.00% and 101.97% and 82.44%
- Cell viability (%) ([1]; Fig. 2f, 1 µM, replicates): 55.27% and 54.06%
- viability at 1 µM ([1]; Fig. 1g, 1 µM, replicates, read-out: Cell viability (%)): 51.8%
- viability at 1 µM ([1]; Fig. 2f, 1 µM, replicates, read-out: Cell viability (%)): 72.9%
- viability at 1 µM ([1]; drug screen in KAP organoids, 1 µM concentration, n = 3, mean, read-out: Cell viability (% of DMSO)): 38.8%
- induction of cell death in KAP organoids (in words) ([1]; viability assay): moderate but significant induction of cell death
- viability at 0.5 µM ([2]; Homo sapiens, 96 h, PDO8, 0.5 µM, 4 d): 82.7%
- Cell viability (%) ([2]; PDO8, 0.5 µM, 4 d, 0.5 µM): 82.90% and 74.01%
- Cell viability (%) ([2]; PDO8, 1 µM, 4 days, 1 µM): 84.53% and 69.94% and 45.12%
- viability at 1 µM ([3]; Homo sapiens, 96 h, PDO9, 1 µM, 4 days): 76.2%
- Cell viability (%) ([3]; PDO9, 0.5 µM, 4 d, 0.5 µM): 87.86% and 110.04% and 106.00%
- Cell viability (%) ([3]; PDO9, 1 µM, 4 days, 1 µM): 91.05% and 91.07%
- viability at 0.5 µM ([4]; Homo sapiens, 96 h, PDO10, 0.5 µM, 4 d, read-out: Cell viability (%)): 90.3%
- viability at 1 µM ([4]; Homo sapiens, 96 h, PDO10, 1 µM, 4 days, read-out: Cell viability (%)): 87.1%
- Cell viability (%) ([4]; PDO10, 0.5 µM, 4 d, 0.5 µM): 99.84% and 101.72%
- Cell viability (%) ([4]; PDO10, 1 µM, 4 days, 1 µM): 92.00% and 89.92%
- Cell viability (%) ([5]; PDO12, 0.5 µM, 4 d, 0.5 µM): 74.14% and 86.52% and 99.28%
- Cell viability (%) ([5]; PDO12, 1 µM, 4 days, 1 µM): 67.94% and 91.05% and 88.04%
- viability at 0.5 µM ([6]; Homo sapiens, 96 h, PDO13, 0.5 µM, 4 d, read-out: Cell viability (%)): 93.8%
- viability at 1 µM ([6]; Homo sapiens, 96 h, PDO13, 1 µM, 4 days, read-out: Cell viability (%)): 84.5%
- Cell viability (%) ([6]; PDO13, 0.5 µM, 4 d, 0.5 µM): 111.59% and 96.20%
- Cell viability (%) ([6]; PDO13, 1 µM, 4 days, 1 µM): 86.80% and 77.48%
- viability at 0.5 µM ([7]; Homo sapiens, 96 h, PDO14, 0.5 µM, 4 d, read-out: Cell viability (%)): 101%
- viability at 1 µM ([7]; Homo sapiens, 96 h, PDO14, 1 µM, 4 days, read-out: Cell viability (%)): 105%
- Cell viability (%) ([7]; PDO14, 0.5 µM, 4 d, 0.5 µM): 102.33% and 109.28%
- Cell viability (%) ([7]; PDO14, 1 µM, 4 days, 1 µM): 95.42% and 93.44%
- HCT 116 Cell viability (%) ([8]; 0.0137 µM): 91.07% and 92.02% and 85.19% and 84.20% and 84.23%
- HCT 116 Cell viability (%) ([8]; 0.0412 µM): 81.63% and 80.34% and 77.04% and 76.76% and 74.10%
- HCT 116 Cell viability (%) ([8]; 0.1235 µM): 88.84% and 91.52% and 85.54% and 79.01% and 86.05%
- HCT 116 Cell viability (%) ([8]; 0.3704 µM): 94.73% and 98.85% and 85.83% and 87.08% and 84.20%
- HCT 116 Cell viability (%) ([8]; 1.1111 µM): 93.31% and 91.15% and 89.63% and 87.68% and 87.77%
- HCT 116 Cell viability (%) ([8]; 3.3333 µM): 77.27% and 77.51% and 74.83% and 76.92% and 78.08%
- HCT 116 Cell viability (%) ([8]; 10.0000 µM): 46.79% and 45.46% and 36.02% and 37.60% and 41.48%
- viability at 0.0137 µM ([8]; Homo sapiens, HCT-116, 96 h, 0.0137 µM, read-out: HCT 116 Cell viability (%)): 89.2%
- viability at 0.0412 µM ([8]; Homo sapiens, HCT-116, 96 h, 0.0412 µM, read-out: HCT 116 Cell viability (%)): 83.7%
- viability at 0.1235 µM ([8]; Homo sapiens, HCT-116, 96 h, 0.1235 µM, read-out: HCT 116 Cell viability (%)): 89%
- viability at 0.3704 µM ([8]; Homo sapiens, HCT-116, 96 h, 0.3704 µM, read-out: HCT 116 Cell viability (%)): 94.1%
- viability at 1.1111 µM ([8]; Homo sapiens, HCT-116, 96 h, 1.1111 µM): 90.8%
- viability at 3.3333 µM ([8]; Homo sapiens, HCT-116, 96 h, 3.3333 µM, read-out: HCT 116 Cell viability (%)): 74%
- viability at 10 µM ([8]; Homo sapiens, HCT-116, 96 h, 10.0000 µM): 45.5%
- COLO 205 Cell viability (%) ([9]; 0.0137 µM): 96.89% and 92.36% and 102.13% and 110.53% and 105.25%
- COLO 205 Cell viability (%) ([9]; 0.0412 µM): 99.77% and 107.60% and 109.36% and 77.71% and 88.84% and 87.27%
- COLO 205 Cell viability (%) ([9]; 0.1235 µM): 93.71% and 107.24% and 99.74% and 85.52% and 87.44% and 87.93%

From PMC11864979, “First-in-class ultralong-target-residence-time p38α inhibitors as a mitosis-targeted therapy for colorectal cancer” (Nature Cancer, 2025)
